Data as given in PubChem BioAssay AID2060882 (Molecular Pharmacology Branch, DTP, NCI, 2025).

Test system: 898857-211-R-J1-PDC complex spheroids, growth % test/control
Assay: Anticancer human tumor 898857-211-R-J1-PDC patient-derived melanoma cell line growth inhibition [RAS]
Settings: for IC50: curve of first compound; for viability, T/C: stronger effect = lower value
Outline: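 Tumour cells grown as complex spheroids with HUVEC endothelial cells and mesenchymal stem cells, treated with RAS pathway inhibitor combinations. Each agent spans half-log steps from near clinical Cmax, or 10 microM where Cmax is unknown.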
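Further: spheroids exposed to compound for seven days before readout.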
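Wherever viability, T/C is given: 100% = DMSO vehicle control wells.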

Cc1nc(N2CCC3(CC2)COC(C)C3N)c(CO)nc1Sc1ccnc(N)c1Cl (centres undefined) + C#Cc1c(F)ccc2cc(O)cc(-c3ncc4c(N5CC6CCC(C5)N6)nc(OCC56CCCN5CC(F)C6)nc4c3F)c12
IC50 (second compound 0.0316 µM): > 10 µM
IC50 (second compound 0.1 µM): > 10 µM
IC50 (second compound 0.316 µM): > 10 µM
IC50 (second compound 1 µM): > 10 µM
IC50 (second compound 3.16 µM): > 10 µM
IC50 (second compound 10 µM): < 0.0316 µM
viability, T/C (second compound 0.0316 µM, first compound 0.0316 µM): 117%
viability, T/C (second compound 0.0316 µM, first compound 0.1 µM): 91.8%
viability, T/C (second compound 0.0316 µM, first compound 0.316 µM): 100%
viability, T/C (second compound 0.0316 µM, first compound 1 µM): 97.3%
viability, T/C (second compound 0.0316 µM, first compound 3.16 µM): 89.8%
viability, T/C (second compound 0.0316 µM, first compound 10 µM): 88.3%
viability, T/C (second compound 0.1 µM, first compound 0.0316 µM): 103%
viability, T/C (second compound 0.1 µM, first compound 0.1 µM): 96.6%
viability, T/C (second compound 0.1 µM, first compound 0.316 µM): 96.2%
viability, T/C (second compound 0.1 µM, first compound 1 µM): 87.1%
viability, T/C (second compound 0.1 µM, first compound 3.16 µM): 97.2%
viability, T/C (second compound 0.1 µM, first compound 10 µM): 86.3%
viability, T/C (second compound 0.316 µM, first compound 0.0316 µM): 101%
viability, T/C (second compound 0.316 µM, first compound 0.1 µM): 102%
viability, T/C (second compound 0.316 µM, first compound 0.316 µM): 102%
viability, T/C (second compound 0.316 µM, first compound 1 µM): 98.2%
viability, T/C (second compound 0.316 µM, first compound 3.16 µM): 103%
viability, T/C (second compound 0.316 µM, first compound 10 µM): 99%
viability, T/C (second compound 1 µM, first compound 0.0316 µM): 104%
viability, T/C (second compound 1 µM, first compound 0.1 µM): 108%
viability, T/C (second compound 1 µM, first compound 0.316 µM): 107%
viability, T/C (second compound 1 µM, first compound 1 µM): 104%
viability, T/C (second compound 1 µM, first compound 3.16 µM): 96.6%
viability, T/C (second compound 1 µM, first compound 10 µM): 108%
viability, T/C (second compound 3.16 µM, first compound 0.0316 µM): 96.8%
viability, T/C (second compound 3.16 µM, first compound 0.1 µM): 108%
viability, T/C (second compound 3.16 µM, first compound 0.316 µM): 86.3%
viability, T/C (second compound 3.16 µM, first compound 1 µM): 106%
viability, T/C (second compound 3.16 µM, first compound 3.16 µM): 103%
viability, T/C (second compound 3.16 µM, first compound 10 µM): 90.8%
viability, T/C (second compound 10 µM, first compound 0.0316 µM): 37.6%
viability, T/C (second compound 10 µM, first compound 0.1 µM): 45.1%
viability, T/C (second compound 10 µM, first compound 0.316 µM): 49%
viability, T/C (second compound 10 µM, first compound 1 µM): 52.2%
viability, T/C (second compound 10 µM, first compound 3.16 µM): 38.2%
viability, T/C (second compound 10 µM, first compound 10 µM): 15.8%

CCN1CCN(Cc2ccc(Nc3ncc(F)c(-c4cc(F)c5nc(C)n(C(C)C)c5c4)n3)nc2)CC1 + CCn1c(-c2cc(N3CCN(C)CC3)cnc2C(C)OC)c2c3cc(ccc31)-c1csc(n1)CC(NC(=O)C1CC1C)C(=O)N1CCCC(N1)C(=O)OCC(C)(C)C2
IC50 (second compound 0.000949 µM): 0.267 µM
IC50 (second compound 0.003 µM): 0.191 µM
IC50 (second compound 0.00949 µM): 0.261 µM
IC50 (second compound 0.03 µM): 0.248 µM
IC50 (second compound 0.0949 µM): 0.252 µM
IC50 (second compound 0.3 µM): 0.288 µM
viability, T/C (second compound 0.000949 µM, first compound 0.00316 µM): 108%
viability, T/C (second compound 0.000949 µM, first compound 0.01 µM): 94.2%
viability, T/C (second compound 0.000949 µM, first compound 0.0316 µM): 82.1%
viability, T/C (second compound 0.000949 µM, first compound 0.1 µM): 57.4%
viability, T/C (second compound 0.000949 µM, first compound 0.316 µM): 51.6%
viability, T/C (second compound 0.000949 µM, first compound 1 µM): 36.9%
viability, T/C (second compound 0.003 µM, first compound 0.00316 µM): 105%
viability, T/C (second compound 0.003 µM, first compound 0.01 µM): 96%
viability, T/C (second compound 0.003 µM, first compound 0.0316 µM): 85.8%
viability, T/C (second compound 0.003 µM, first compound 0.1 µM): 54.9%
viability, T/C (second compound 0.003 µM, first compound 0.316 µM): 47.7%
viability, T/C (second compound 0.003 µM, first compound 1 µM): 38.1%
viability, T/C (second compound 0.00949 µM, first compound 0.00316 µM): 96.8%
viability, T/C (second compound 0.00949 µM, first compound 0.01 µM): 97.4%
viability, T/C (second compound 0.00949 µM, first compound 0.0316 µM): 82.3%
viability, T/C (second compound 0.00949 µM, first compound 0.1 µM): 79.8%
viability, T/C (second compound 0.00949 µM, first compound 0.316 µM): 42.7%
viability, T/C (second compound 0.00949 µM, first compound 1 µM): 36.4%
viability, T/C (second compound 0.03 µM, first compound 0.00316 µM): 96.9%
viability, T/C (second compound 0.03 µM, first compound 0.01 µM): 102%
viability, T/C (second compound 0.03 µM, first compound 0.0316 µM): 75.4%
viability, T/C (second compound 0.03 µM, first compound 0.1 µM): 67.4%
viability, T/C (second compound 0.03 µM, first compound 0.316 µM): 46.3%
viability, T/C (second compound 0.03 µM, first compound 1 µM): 29.4%
viability, T/C (second compound 0.0949 µM, first compound 0.00316 µM): 107%
viability, T/C (second compound 0.0949 µM, first compound 0.01 µM): 113%
viability, T/C (second compound 0.0949 µM, first compound 0.0316 µM): 87.2%
viability, T/C (second compound 0.0949 µM, first compound 0.1 µM): 64.3%
viability, T/C (second compound 0.0949 µM, first compound 0.316 µM): 48.9%
viability, T/C (second compound 0.0949 µM, first compound 1 µM): 39%
viability, T/C (second compound 0.3 µM, first compound 0.00316 µM): 117%
viability, T/C (second compound 0.3 µM, first compound 0.01 µM): 110%
viability, T/C (second compound 0.3 µM, first compound 0.0316 µM): 76%
viability, T/C (second compound 0.3 µM, first compound 0.1 µM): 70.2%
viability, T/C (second compound 0.3 µM, first compound 0.316 µM): 48.5%
viability, T/C (second compound 0.3 µM, first compound 1 µM): 33.9%
